Test system: cardiac gene expression
Test: Microarray analysis of cardiac gene expression (GeneChip Mouse Genome 430 2.0)
Assay type: in vivo, mice
Description: Microarray Sample Preparation and Analysis. Animal hearts were rapidly removed, and the atria and right ventricles were cut and immediately plunged into TRIzol Reagent (Life Technologies). Total RNA was isolated following the manufacturer's instructions, purified by phenol-chloroform extraction and then ethanol precipitation, and 20 μg further processed for microarray analysis. Briefly, cDNA synthesis, in vitro transcription, and labeling and fragmentation to produce the oligonucleotide probes were performed as instructed by the GeneChip manufacturer (Affymetrix). The probes were first hybridized to a test array (Affymetrix) and then to the GeneChip Mouse Genome 430 2.0 Array, using the GeneChip Hybridization Oven 640. The chips were washed in a GeneChip Fluidics Station 450 (Affymetrix), and the results were visualized with a GeneChip G7 scanner (Affymetrix). RMA normalization, pairwise comparisons, Student's t test and Benjamini and Hochberg correction were subsequently performed using GeneSifter (VizX Labs, Seattle, Wash.) and Spotfire DecisionSite 8.3 (Spotfire, Inc., Somerville, Mass.).
Effects on Gene Expression Profile. […] One mouse heart was used for each array, and was performed in triplicate, generating a total of 12 arrays. GeneSifter was used to perform RMA normalization, pairwise comparisons of averaged signal intensity values, and Student's t-test with Benjamini and Hochberg correction, and Spotfire was used to perform pairwise comparisons. […] Additionally, genes that were altered between any two N or cardiac hypertrophy samples were removed, as these alterations most likely represented normal variations between mice.

[1] = mouse heart, vs isoproterenol only (CH), CH vs normal 7.4
[2] = mouse heart, vs isoproterenol only (CH), CH vs normal −1.7
[3] = mouse heart, vs isoproterenol only (CH), CH vs normal −1.8
[4] = mouse heart, vs isoproterenol only (CH), CH vs normal −1.9
[5] = mouse heart, vs isoproterenol only (CH), CH vs normal −2.0
[6] = mouse heart, vs isoproterenol only (CH), CH vs normal −2.1
[7] = mouse heart, vs isoproterenol only (CH), CH vs normal −2.4
[8] = mouse heart, vs isoproterenol only (CH), CH vs normal −2.5
[9] = mouse heart, vs isoproterenol only (CH), CH vs normal −2.6
[10] = mouse heart, vs isoproterenol only (CH), CH vs normal −2.7
[11] = mouse heart, vs isoproterenol only (CH), CH vs normal −2.9
[12] = mouse heart, vs isoproterenol only (CH), CH vs normal −3.0
[13] = mouse heart, vs isoproterenol only (CH), CH vs normal −3.2
[14] = mouse heart, vs isoproterenol only (CH), CH vs normal −3.3

`NC(=O)N1c2ccccc2C=Cc2ccccc21` [carbamazepine] was tested, and the “FC Membrane-spanning 4-domains, subfamily A, member 6d (Ms4a6d), NM_026835” value (mouse heart, vs isoproterenol only (CH), CH vs normal 6.4) was −1.6 fold, the “FC Proteoglycan 4 (megakaryocyte stimulating factor, articular superficial zone protein) (Prg4), NM_021400” value (mouse heart, vs isoproterenol only (CH), CH vs normal 6.8) was −1.5 fold and the “FC CCAATenhaer binding protein (CEBP), delta (Cebpd), BB831146” value [1] was −1.6 fold. For the same compound, the “FC Ca(2+)-sensitive chloride channel 2 (Clca2), AF108501” value [1] was −2.0 fold, the “FC Lysyl oxidase (Lox), M65143” value [1] was −2.1 fold and the “FC Cytokine inducible SH2-containing protein 3 (Socs3), BB831725” value (mouse heart, vs isoproterenol only (CH), CH vs normal 8.2) was −2.4 fold. For the same compound, the “FC C-type (calcium dependent, carbohydrate recognition domain) lectin, superfamily member 8 (Clecsf8), NM_010819” value (mouse heart, vs isoproterenol only (CH), CH vs normal 10.8) was −1.7 fold, the “FC Lysyl oxidase (Lox), NM_010728” value (mouse heart, vs isoproterenol only (CH), CH vs normal 11.1) was −2.4 fold and the “FC FK506 binding protein 5 (51 kDa) (Fkbp5), BC015260” value (mouse heart, vs isoproterenol only (CH), CH vs normal 16.3) was −1.6 fold. For the same compound, the “FC Lipocalin 2 (Lcn2), X14607” value (mouse heart, vs isoproterenol only (CH), CH vs normal 27.7) was −1.6 fold, the “FC Serine protease inhibitor 2-2 (Spi2-2) (Serpin3n), NM_009252” value (mouse heart, vs isoproterenol only (CH), CH vs normal 40.5) was −2.3 fold and the “FC Metallophosphoesterase domain containing 2 (Mpped2), AK012553” value (mouse heart, vs isoproterenol only (CH), CH vs normal −1.5) was 1.6 fold. For the same compound, the “FC cDNA, BM229539” value (mouse heart, vs isoproterenol only (CH), CH vs normal −1.6) was 1.6 fold, the “FC Cytoplasmic polyadenylation element binding protein 3 (Cpeb3), BB281000” value [2] was 1.8 fold and the “FC EphrinB3 (Efnb3), BQ175608” value [2] was 1.5 fold. The “FC Nuclear factor IB (Nfib), BB092799” value [2] was 2.0 fold, the “FC Preimplantation protein 4 (Prei4), BB550273” value [2] was 1.7 fold and the “FC Triple futional domain (PTPRF interacting) (Trio), BB794936” value [2] was 1.7 fold. The “FC EST, BB126796” value [3] was 2.2 fold, the “FC EST, BB451134” value [3] was 2.2 fold and the “FC Metastasis suppressor 1 (Mtss1), BB326749” value [3] was 1.6 fold. For the same compound, the “FC Tetratricopeptide repeat domain (Ttc3), BB833716” value [3] was 2.0 fold, the “FC EST, BM941198” value [4] was 1.7 fold and the “FC Jumonji, AT rich interactive domain 1A (Rbp2 like) (Jarid1a), BB376407” value [4] was 1.8 fold. The “FC Guanine nucleotide binding protein, alpha 12 (Gna12), NM_010302” value [5] was 1.6 fold, the “FC Zi finger and BTB domain containing 20 (Zbtb20), BB175650” value [5] was 1.9 fold and the “FC C1q and tumor necrosis factor related protein 4 (C1qtnf4), NM_026161” value [6] was 1.5 fold. For the same compound, the “FC Cold inducible RNA binding protein (Cirbp), NM_007705” value [6] was 2.1 fold, the “FC Adrenergic receptor, alpha 1b (Adra1b), NM_007416” value (mouse heart, vs isoproterenol only (CH), CH vs normal −2.3) was 1.6 fold and the “FC DNA segment, Chr 9, ERATO Doi 256, expressed, BG066667” value [7] was 1.8 fold. For the same compound, the “FC Insulin degrading enzyme (Ide), AK014703” value [7] was 1.9 fold, the “FC Sno, strawbeny notch homolog 1 (Sno1), BE947961” value [7] was 1.6 fold and the “FC B-cell translocation gene 2, anti-proliferative (Btg2), BG965405” value [8] was 1.8 fold. For the same compound, the “FC cDNA, BC026793” value [8] was 1.8 fold, the “FC Desmoglein 2 (Dsg2), AB072269” value [9] was 2.5 fold and the “FC Heat shock protein, 84 kDa 1 (Hsp90ab1), BI154147” value [9] was 3.7 fold. For the same compound, the “FC Myocyte enhaer factor 2C (Mef2c), AI595932” value [9] was 1.9 fold, the “FC Restin-like 2 (Rsnl2), AK018895” value [9] was 1.9 fold and the “FC Jumonji domain containing 3 (Jmjd3), AW763746” value [10] was 1.9 fold. The “FC cDNA (similar to integrin beta 1 binding protein 3), AK009897” value [10] was 2.7 fold, the “FC Karyopherin (importin) beta 1 (Kpnb1), AW544889” value (mouse heart, vs isoproterenol only (CH), CH vs normal −2.8) was 2.3 fold and the “FC PPAR gamma coactivator-1beta protein (Ppargc1b), NM_133249” value [11] was 2.0 fold. The “FC SET and MYND domain containing 1 (Smyd1), NM_009762” value [11] was 1.7 fold, the “FC Dual specificity phosphatase 8 (Dusp8), NM_008748” value [12] was 1.8 fold and the “FC GATA binding protein 4 (Gata4), NM_008092” value [12] was 2.1 fold. The “FC Actin, beta, cytoplasmic (Actb), AW537707” value [13] was 1.7 fold, the “FC Methionine sulfoxide reductase B3 (Msrb3), BB277041” value [13] was 1.7 fold and the “FC Thymoma viral proto-oogene 1 (Akt1), M94335” value [14] was 1.6 fold. The “FC cDNA, BB283973” value [14] was 1.9 fold, the “FC cDNA, BB534971” value (mouse heart, vs isoproterenol only (CH), CH vs normal −3.5) was 1.6 fold and the “FC cDNA, BB026304” value (mouse heart, vs isoproterenol only (CH), CH vs normal −3.8) was 2.5 fold. For the same compound, the “FC Kinesin-like protein (Kif1b), D17577” value (mouse heart, vs isoproterenol only (CH), CH vs normal −3.9) was 1.6 fold, the “FC Kv channel-interacting protein 2a (Kcnip2), AF439339” value (mouse heart, vs isoproterenol only (CH), CH vs normal −4.4) was 2.6 fold and the “FC Potassium voltage-gated channel, Isk-related subfamily, member 1 (Kcne1), NM_008424” value (mouse heart, vs isoproterenol only (CH), CH vs normal −4.6) was 1.5 fold. The “FC Tumor rejection antigen gp96 (Tra1); heat shock protein 90 kDa beta (Grp94), member 1 (Hsp90b1), BE995678” value (mouse heart, vs isoproterenol only (CH), CH vs normal −9.4) was 2.7 fold, the “FC Cadherin 13 (Cdh13), AK016527” value (mouse heart, vs isoproterenol only (CH), CH vs normal −10.0) was 5.9 fold and the “number of the 472 cardiac hypertrophy-specific Combo-altered genes also altered by the drug alone” value (statistical parameters lifted (average fold-changes irrespective of statistical measures)) was 98. For the same compound, the “G7e protein gene, fold-change” value (the only gene significantly altered) was −2.2 fold.
